Values quoted from earlier work as cited in US9884121B2, “Biomaterials and a method for making and using same” (Alumend, LLC, priority 2007, dated 2018).

System: Skin-to-skin
Details: U.S. Pat. No. 5,817,303

C=C(C#N)C(=O)OCC [Ethyl cyanoacrylate]
Shear Strength: 385 ± 119 g-f/cm^2
